SMILES strings stand for the structures. pIC50: −log10 of the molar value. Counter-ions that a name gives are not always drawn.

The target in this assay is full-length human PRMT6 (Flag- and His-tagged) (Homo sapiens, UniProt Q96LA8). Kind of assay: PRMT6 biochemical assay (3H-SAM Flashplate, histone H4 36-50 K44me1 peptide). To be noted: 1 nM PRMT6, 30 min preincubation, 75 nM peptide. The text has this: S-adenosylmethionine (SAM), S-adenosylhomocysteine (SAH), bicine, Tween20, dimethylsulfoxide (DMSO), bovine skin gelatin (BSG), sodium butyrate and Tris(2-carboxyethyl)phosphine hydrochloride solution (TCEP) were purchased from Sigma-Aldrich at the highest level of purity possible. ^3H-SAM was purchase from American Radiolabeled Chemicals with a specific activity of 80 Ci/mmol. 384-well streptavidin Flashplates were purchased from PerkinElmer.
full-length human PRMT6 (Flag- and His-tagged), sequence (Q96LA8 with tags, fused parts or gaps): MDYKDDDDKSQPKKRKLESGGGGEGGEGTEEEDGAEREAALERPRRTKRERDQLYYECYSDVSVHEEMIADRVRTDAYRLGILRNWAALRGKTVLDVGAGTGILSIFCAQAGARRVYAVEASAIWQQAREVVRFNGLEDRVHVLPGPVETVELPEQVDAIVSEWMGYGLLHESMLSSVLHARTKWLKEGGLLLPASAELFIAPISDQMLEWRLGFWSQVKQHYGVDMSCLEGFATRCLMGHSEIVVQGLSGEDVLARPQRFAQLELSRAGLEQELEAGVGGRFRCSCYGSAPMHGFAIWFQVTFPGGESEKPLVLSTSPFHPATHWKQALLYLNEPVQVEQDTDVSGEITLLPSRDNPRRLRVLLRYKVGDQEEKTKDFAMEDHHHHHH
Peptide representative of human histone H4 residues 36-50 was synthesized with an N-terminal linker-affinity tag motif and a C-terminal amide cap by 21st Century Biochemicals. The peptide was purified by high-performance liquid chromatography (HPLC) to greater than 95% purity and confirmed by liquid chromatography mass spectrometry (LC-MS). The sequence was Biot-Ahx-[…]-amide and contained a monomethylated lysine at position 44 (SEQ ID NO.:5).
Full-length human PRMT6 (NM_018137.2) transcript clone was amplified from an HEK 293 cDNA library, incorporating a flanking 5′ sequence encoding a FLAG tag ([…]) (SEQ ID NO.:6) fused directly to Ser 2 of PRMT6 and a 3′ sequence encoding a hexa His sequence (HHHHHH) (SEQ ID NO.: 17) fused directly to Asp 375. The amplified gene was subcloned into pFastBacMam (Viva Biotech).
Recombinant baculovirus were generated according to Bac-to-Bac kit instructions (Life Technologies). […] Infections were carried out at 37° C. for 48 hours, harvested by centrifugation, and stored at −80° C. for purification.
Column was washed with 20 mM imidazole in the same buffer and Flag-PRMT6-His was eluted with 150 mM imidazole. Pooled fractions were dialysed against buffer Ni-A and further purified by anti-flag M2 affinity chromatography. Flag-PRMT6-His was eluted with 200 ug/ml FLAG peptide in the same buffer. Pooled fractions were dialysed in 20 mM Tris, 150 mM NaCl, 10% glycerol and 5 mM β-mercaptoethanol, pH 7.8. The purity of recovered protein was 95%.
General Procedure for PRMT6 Enzyme Assays on Peptide Substrates.
The assays were all performed in a buffer consisting of 20 mM Bicine (pH=7.6), 1 mM TCEP, 0.005% BSG, and 0.002% Tween 20, prepared on the day of use. Compounds in 100% DMSO (1 ul) were spotted into a polypropylene 384-well V-bottom plates (Greiner) using a Platemate Plus outfitted with a 384-channel head (Thermo Scientific). DMSO (1 ul) was added to Columns 11, 12, 23, 24, rows A-H for the maximum signal control and 1 ul of SAH, a known product and inhibitor of PRMT6, was added to columns 11, 12, 23, 24, rows I-P for the minimum signal control. A cocktail (40 ul) containing the PRMT6 enzyme was added by Multidrop Combi (Thermo-Fisher). The compounds were allowed to incubate with PRMT6 for 30 min at room temperature, then a cocktail (10 ul) containing SAM and peptide was added to initiate the reaction (final volume=51 ul). The final concentrations of the components were as follows: PRMT6 was 1 nM, ^3H-SAM was 200 nM, non-radiolabeled SAM was 250 nM, peptide was 75 nM, SAH in the minimum signal control wells was 1 mM, and the DMSO concentration was 2%. The assays were stopped by the addition of non-radiolabeled SAM (10 ul) to a final concentration of 400 uM, which dilutes the ^3H-SAM to a level where its incorporation into the peptide substrate is no longer detectable. 50 ul of the reaction in the 384-well polypropylene plate was then transferred to a 384-well Flashplate and the biotinylated peptides were allowed to bind to the streptavidin surface for at least 1 hour before being washed once with 0.1% Tween20 in a Biotek ELx405 plate washer. The plates were then read in a PerkinElmer TopCount plate reader to measure the quantity of ^3H-labeled peptide bound to the Flashplate surface, measured as disintegrations per minute (dpm) or alternatively, referred to as counts per minute (cpm).
Where dpm=disintegrations per minute, cmpd=signal in assay well, and min and max are the respective minimum and maximum signal controls. […]
As usually defined, the pIC50 is −log10 of the IC50, conventionally taken in molar units. Take `CNCCN(C)Cc1scnc1[C@H]1CC[C@@]2(CC1)CC(C)(C)CO2` [compound 62]: the negative logarithm of the IC50 (pIC50) is 7.74. Turning to `CCC1(CC)CC2(CCC(c3n[nH]cc3CN(C)CCNC)CC2)N(C)C1=O` (centres unmarked) [compound 22, 3,3-diethyl-1-methyl-8-(4-((methyl(2-(methylamino)ethyl)amino)methyl)-1H-pyrazol-3-yl)-1-azaspiro[4.5]decan-2-one], the pIC50 is 7.20. Compound `CNCCN(C)Cc1nn(C)cc1[C@H]1CC[C@@]2(CC1)CC(C)(C)CO2` [compound 81] gave a pIC50 of 6.91. `CNCCN(C)Cc1c[nH]nc1C1C[C@H](C(=O)NCCOC)C(C)(C)[C@H](C(=O)NCCOC)C1` (some centres unmarked) [compound 13] had a negative logarithm of the IC50 (pIC50) of less than 5.00. For `CNCCN(C)Cc1c(C)noc1[C@H]1CC[C@@]2(CC1)CC(C)(C)CO2` [compound 113] the value was 5.94. As for `CNCCN(C)Cc1nocc1[C@H]1CC[C@@]2(CC1)CC(C)(C)CO2` [compound 117], the figure is 5.88. For `CNCCN(C)Cc1c[nH]nc1[C@@H]1CC[C@@H](OCCCOC)C2(CCCC2)C1` (racemic) [compound 26, N1-((3-((7R,10R)-10-(3-methoxypropoxy)spiro[4.5]decan-7-yl)-1H-pyrazol-4-yl)methyl)-N1,N2-dimethylethane-1,2-diamine] the value was 6.97; for `CCOCC1(COCC)CCC(c2nn(C)cc2CN(C)CCN)CC1` [compound 124], 7.24; for `CNCCN(C)Cc1nncn1[C@H]1CC[C@@]2(CC1)CC(C)(C)CO2` [compound 68], less than 5.00. `CC[C@]12CC[C@](CC)(C[C@@H](c3n[nH]cc3CN(C)CCNC)C1)O2` [compound 38, N1-((3-((1R,3s,5S)-1,5-diethyl-8-oxabicyclo[3.2.1]octan-3-yl)-1H-pyrazol-4-yl)methyl)-N1,N2-dimethylethane-1,2-diamine]: the pIC50 was 6.88. As for `CCOCC1(COCC)CCC(c2n[nH]cc2CN(C)CCN)CC1` [compound 123], the figure is 7.78; as for `CNCCN(C)Cc1nn[nH]c1[C@H]1CC[C@]2(CC1)CC(C)(C)CO2` [compound 89], 6.37; as for `CNCCN(C)Cc1nn(C)nc1[C@H]1CC[C@@]2(CC1)CC(C)(C)CO2` [compound 64], 6.68. As for `CNCCN(C)Cc1c[nH]nc1C1=CCC(CF)(CF)CC1` [compound 15, N-((3-(4,4-bis(fluoromethyl)cyclohex-1-en-1-yl)-1H-pyrazol-4-yl)methyl)-N1,N2-dimethylethane-1,2-diamine], the figure is 7.78; as for `CN(CCN)Cc1c[nH]nc1[C@H]1CC[C@@]2(CC1)CC(C)(C)CO2` [compound 105], 7.73. `CNCCN(C)Cc1c[nH]nc1[C@@H]1CC[C@H](OCCCOC)C2(CCCC2)C1` (racemic) [compound 27, N1-((3-((7R,10S)-10-(3-methoxypropoxy)spiro[4.5]decan-7-yl)-1H-pyrazol-4-yl)methyl)-N1,N2-dimethylethane-1,2-diamine] had a pIC50 of 6.42. Compared with the last compound, the pIC50 is 1.31 log units lower. With `CN(CCN)Cc1nn(C)cc1[C@H]1CC[C@]2(CC1)CC(C)(C)CO2` [compound 102], the negative logarithm of the IC50 (pIC50) was 5.94. This pIC50 lies 0.48 log units lower than the previous one. As for `CNCCNCc1c[nH]nc1[C@H]1CC[C@@]2(CC1)CC(C)(C)CO2` [compound 28, N1-((3-((5s,8s)-3,3-dimethyl-1-oxaspiro[4.5]decan-8-yl)-1H-pyrazol-4-yl)methyl)-N2-methylethane-1,2-diamine], the figure is 6.58.

For the compound `Cc1[nH]nc([C@H]2CC[C@@]3(CC2)CC(C)(C)CO3)c1CN(C)CCN` [compound 51, N1-((3-((5s,8s)-3,3-dimethyl-1-oxaspiro[4.5]decan-8-yl)-5-methyl-1H-pyrazol-4-yl)methyl)-N1-methylethane-1,2-diamine], the pIC50 was 6.81.

The compound `CNCCN(C)Cc1c[nH]nc1C1=CCC(COCC(F)(F)F)CC1` (centres unmarked) [compound 16, N1,N2-dimethyl-N1-((3-(4-((2,2,2-trifluoroethoxy)methyl)cyclohex-1-en-1-yl)-1H-pyrazol-4-yl)methyl)ethane-1,2-diamine] showed a pIC50 of 7.77.

Compound `CNCCN(C)Cc1nc(C)sc1[C@H]1CC[C@]2(CC1)CC(C)(C)CO2` [compound 99] had a negative logarithm of the IC50 (pIC50) of 6.50. As for `CCC1CC(c2n[nH]cc2CN(C)CCNC)CC(C(=O)NCCOC)C1(C)C` (centres unmarked) [compound 21, 3-ethyl-N-(2-methoxyethyl)-2,2-dimethyl-5-[4-([methyl[2-(methylamino)ethyl]amino]methyl)-1H-pyrazol-3-yl]cyclohexane-1-carboxamide dihydrochloride], the figure is 6.10. Take `CNCCN(C)Cc1nc(C)sc1[C@H]1CC[C@@]2(CC1)CC(C)(C)CO2` [compound 77]: the pIC50 is 6.74. Consider `CCC1(CC)C[C@]2(CC[C@H](c3n[nH]cc3CN(C)CCNC)CC2)OC1=O` [compound 33, (5s,8s)-3,3-diethyl-8-(4-((methyl(2-(methylamino)ethyl)amino)methyl)-1H-pyrazol-3-yl)-1-oxaspiro[4.5]decan-2-one], for which the pIC50 is 7.68. This pIC50 is 0.94 log units higher than that of the compound before.

For `CNCCN(C)Cc1nccn1[C@H]1CC[C@]2(CC1)CC(C)(C)CO2` [compound 91], the negative logarithm of the IC50 (pIC50) was less than 5.00. As for `CCN(C)C(=O)C1CC(c2n[nH]cc2CN(C)CCNC)CC(C(=O)NCCC(C)C)C1(C)C` (centres unmarked) [compound 14, N1-ethyl-N3-isopentyl-N1,2,2-trimethyl-5-(4-((methyl(2-(methylamino)ethyl)amino)methyl)-1H-pyrazol-3-yl)cyclohexane-1,3-dicarboxamide], the figure is less than 5.00; as for `CNCCN(C)Cc1scnc1[C@H]1CC[C@]2(CC1)CC(C)(C)CO2` [compound 84], 7.05; as for `CNCCNCc1c[nH]nc1[C@H]1CC[C@]2(CC1)CC(C)(C)CO2` [compound 29, N1-((3-((5r,8r)-3,3-dimethyl-1-oxaspiro[4.5]decan-8-yl)-1H-pyrazol-4-yl)methyl)-N2-methylethane-1,2-diamine], 5.72.

Compound `CNCCN(C)Cc1c[nH]nc1C1CCC(C)(C)[C@H](CO)C1` (stereo partly drawn) [compound 32, [(1R)-2,2-dimethyl-5-[4-({methyl[2-(methylamino)ethyl]amino}methyl)-1H-pyrazol-3-yl]cyclohexyl]methanol] had a pIC50 of 7.79.

Compound `CCOCC1(COCC)CC=C(c2n[nH]cc2CN(C)CCNC)CC1` [compound 60] showed a negative-log IC50 (pIC50) of 7.39. This pIC50 is 0.40 log units lower than that of the compound before. For `CCCOCC1(COCCC)CCC(c2n[nH]cc2CN(C)CCNC)CC1` [compound 36, N^1-((3-(4,4-bis(propoxymethyl)cyclohexyl)-1H-pyrazol-4-yl)methyl)-N^1,N^2-dimethylethane-1,2-diamine] the value was 7.83; for `CCOCC1(COCC)CCC(c2nn(C)cc2CN(C)CCNC)CC1` [compound 122], 7.37. For `CNCCN(C)Cc1c[nH]nc1[C@H]1CC[C@]2(CCCCO2)CC1` [compound 127, methyl([2-[methyl([3-[(6s,9r)-1-oxaspiro[5.5]undecan-9-yl]-1H-pyrazol-4-yl]methyl)amino]ethyl])amine bistrifluoroacetic acid salt] the value was 7.63; for `CNCCN(C)Cc1nncn1[C@H]1CC[C@]2(CC1)CC(C)(C)CO2` [compound 90], less than 5.00. For `CNCCN(C)Cc1c[nH]nc1C1CCC(OCCCOC)C2(CCCC2)C1` (mixture of isomers) [compound 19, N1-((3-(10-(3-methoxypropoxy)spiro[4.5]decan-7-yl)-1H-pyrazol-4-yl)methyl)-N1,N2-dimethylethane-1,2-diamine dihydrochloride] the value was 6.72.
